Our source for the IC50 values is patent publication US12440481B2, “Esters and carbamates as modulators of sodium channels” (VERTEX PHARMACEUTICALS INCORPORATED, priority 2019, dated 2025).

For the assay, the target named is human NaV 1.8 (Homo sapiens, UniProt Q9Y5Y9). Put plainly: E-VIPR Assay for Detecting and Measuring NaV Inhibition Properties. It is filed as cell-based. The note with it: HEK cells expressing a truncated form of human NaV 1.8; HS = human serum; read-out: EVIPR HS IC50. The text has this: E-VIPR Assay for Detecting and Measuring NaV Inhibition Properties
Sodium ion channels are voltage-dependent proteins that can be activated by inducing membrane voltage changes by applying electric fields. The electrical stimulation instrument and methods of use, referred to as E-VIPR, are described in International Publication No. WO 2002/008748 A3 and C.-J. Huang et al. Characterization of voltage-gated sodium channel blockers by electrical stimulation and fluorescence detection of membrane potential, 24 Nature Biotech. 439-46 (2006), both of which are incorporated by reference in their entirety. The instrument comprises a microtiter plate handler, an optical system for exciting the coumarin dye while simultaneously recording the coumarin and oxonol emissions, a waveform generator, a current- or voltage-controlled amplifier, and parallel electrode pairs that are inserted into assay plate wells. Under integrated computer control, this instrument passes user-programmed electrical stimulus protocols to cells within the wells of the microtiter plate.
16-20 hours prior to running the assay on E-VIPR, HEK cells expressing a truncated form of human NaV 1.8 with full channel activity were seeded into microtiter 384-well plates, pre-coated with matrigel, at a density of 25,000 cells per well. 2.5-5% KIR2.1 Bacmam virus was added to the final cell suspension before seeding into cell plates. HEK cells were grown in Dulbecco's Modified Eagle's Medium (DMEM) supplemented with 10% FBS (Fetal Bovine Serum, qualified; Sigma #F4135), 1% NEAA (Non-Essential Amino Acids, Gibco #11140), 1% HEPES (Gibco #15630), 1% Pen-Strep (Penicillin-Streptomycin; Gibco #15140) and 5 μg/ml Blasticidin (Gibco #R210-01). Cells were expanded in vented cap cell culture flasks, with 90-95% humidity and 5% CO2.
Reagents and Stock Solutions:
• 100 mg/mL Pluronic F-127 (Sigma #P2443), in dry DMSO • Compound Plates: Corning 384-well Polypropylene Round Bottom #3656 • Cell Plates: 384-well tissue culture treated plates (Greiner #781091-1B) • 2.5-5% KIR 2.1 Bacmam virus (produced in-house), prepared as described in Section 3.3 of J. A. Fornwald et al., Gene Expression in Mammalian Cells Using BacMam, a Modified Baculovirus System, 1350 Methods in Molecular Biology 95-116 (2016), the entire contents of which are incorporated by reference. The concentration used can be dependent on viral titer of each batch. • 5 mM DiSBAC6 (3), a voltage sensitive oxonol acceptor (CAS number 169211-44-3; 5-[3-(1,3-dihexylhexahydro-4,6-dioxo-2-thioxo-5-pyrimidinyl)-2-propen-1-ylidene]-1,3-dihexyldihydro-2-thioxo-4,6(1H,5H)-pyrimidinedione), in dry DMSO. The preparation of DiSBAC6 (3) is analogous to that of DiSBAC4 (3) as described in Voltage Sensing by Fluorescence Resonance Energy Transfer in Single Cells, Gonzalez, J. E. and Tsien, R. Y. (1995) Biophys. J. 69, 1272-1280. • 5 mM CC2-DMPE, a commercially available membrane-bound coumarin phospholipid FRET donor (ThermoFisher Scientific catalog number K1017, CAS number 393782-57-5; tetradecanoic acid, 1,1′-[(1R)-1-[8-(6-chloro-7-hydroxy-2-oxo-2H-1-benzopyran-3-yl)-3-hydroxy-3-oxido-8-oxo-2,4-dioxa-7-aza-3-phosphaoct-1-yl]-1,2-ethanediyl] ester) was prepared in dry DMSO. […]

Sequence of human NaV 1.8 (Q9Y5Y9 whole entry, looked up, the tested form may be a part): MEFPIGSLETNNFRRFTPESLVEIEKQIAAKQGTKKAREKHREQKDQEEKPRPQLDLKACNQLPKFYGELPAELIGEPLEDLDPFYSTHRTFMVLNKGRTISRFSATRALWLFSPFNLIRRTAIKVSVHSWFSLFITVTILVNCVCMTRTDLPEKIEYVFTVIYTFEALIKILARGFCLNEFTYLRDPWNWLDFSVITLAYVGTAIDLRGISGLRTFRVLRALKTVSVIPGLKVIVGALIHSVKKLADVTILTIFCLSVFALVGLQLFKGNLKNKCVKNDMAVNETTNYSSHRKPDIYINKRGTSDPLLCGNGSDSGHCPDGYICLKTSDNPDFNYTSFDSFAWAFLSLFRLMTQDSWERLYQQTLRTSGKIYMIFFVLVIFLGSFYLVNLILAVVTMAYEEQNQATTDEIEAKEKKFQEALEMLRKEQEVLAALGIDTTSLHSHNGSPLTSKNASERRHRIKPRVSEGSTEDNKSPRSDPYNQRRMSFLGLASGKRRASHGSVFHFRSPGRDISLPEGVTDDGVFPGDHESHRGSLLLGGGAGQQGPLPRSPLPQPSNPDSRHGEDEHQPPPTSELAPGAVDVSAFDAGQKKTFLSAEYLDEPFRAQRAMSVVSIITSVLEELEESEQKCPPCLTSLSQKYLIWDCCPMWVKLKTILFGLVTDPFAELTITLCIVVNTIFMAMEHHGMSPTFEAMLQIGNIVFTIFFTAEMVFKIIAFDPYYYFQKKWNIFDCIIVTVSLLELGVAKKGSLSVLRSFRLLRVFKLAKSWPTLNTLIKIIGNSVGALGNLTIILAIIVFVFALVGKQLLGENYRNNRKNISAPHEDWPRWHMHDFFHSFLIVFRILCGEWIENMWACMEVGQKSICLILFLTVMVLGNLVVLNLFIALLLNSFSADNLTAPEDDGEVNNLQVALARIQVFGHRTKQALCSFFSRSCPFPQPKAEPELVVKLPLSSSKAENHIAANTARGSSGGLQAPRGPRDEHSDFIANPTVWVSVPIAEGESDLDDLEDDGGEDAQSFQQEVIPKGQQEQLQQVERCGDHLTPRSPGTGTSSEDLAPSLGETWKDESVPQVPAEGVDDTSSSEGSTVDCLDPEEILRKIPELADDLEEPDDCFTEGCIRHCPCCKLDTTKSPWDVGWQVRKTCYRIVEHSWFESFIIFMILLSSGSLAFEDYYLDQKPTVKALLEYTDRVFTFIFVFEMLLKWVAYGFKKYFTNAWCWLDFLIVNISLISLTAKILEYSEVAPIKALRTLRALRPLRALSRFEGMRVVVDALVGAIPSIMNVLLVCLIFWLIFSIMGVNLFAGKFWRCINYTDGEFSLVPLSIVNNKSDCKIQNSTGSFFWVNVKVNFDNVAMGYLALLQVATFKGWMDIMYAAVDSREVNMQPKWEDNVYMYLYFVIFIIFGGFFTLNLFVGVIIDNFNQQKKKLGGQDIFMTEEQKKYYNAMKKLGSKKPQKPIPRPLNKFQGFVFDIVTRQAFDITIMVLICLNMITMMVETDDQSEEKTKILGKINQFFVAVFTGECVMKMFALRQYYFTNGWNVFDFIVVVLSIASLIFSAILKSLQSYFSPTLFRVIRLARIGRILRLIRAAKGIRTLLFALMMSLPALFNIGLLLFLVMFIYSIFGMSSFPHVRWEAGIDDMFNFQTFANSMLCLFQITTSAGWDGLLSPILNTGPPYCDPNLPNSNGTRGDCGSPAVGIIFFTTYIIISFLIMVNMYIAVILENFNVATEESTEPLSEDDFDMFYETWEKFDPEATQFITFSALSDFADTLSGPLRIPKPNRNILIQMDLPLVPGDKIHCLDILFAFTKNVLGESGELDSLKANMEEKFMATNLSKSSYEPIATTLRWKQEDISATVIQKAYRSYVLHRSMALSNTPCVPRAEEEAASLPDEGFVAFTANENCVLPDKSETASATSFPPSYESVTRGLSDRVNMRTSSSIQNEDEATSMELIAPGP

A word on the IC50: it is the concentration that gives 50% inhibition. On to `[2H]C([2H])([2H])Oc1cc(OC(F)(F)F)ccc1Oc1cc(C(F)(F)F)c(F)cc1C(=O)Nc1ccnc(NC(=O)OC(C)(C)C)c1` [Compound 7, tert-butyl N-[4-[[5-fluoro-2-[2-(trideuteriomethoxy)-4-(trifluoromethoxy)phenoxy]-4-(trifluoromethyl)benzoyl]amino]-2-pyridyl]carbamate], for which the IC50 was not below 1000 nM.

Take `COC(=O)c1cc(NC(=O)c2c(Oc3ccc(OC(F)(F)F)c(F)c3C)ccc(C(F)(F)F)c2F)c(C)cn1` [Compound 17, Methyl 4-[[2-fluoro-6-[3-fluoro-2-methyl-4-(trifluoromethoxy)phenoxy]-3-(trifluoromethyl)benzoyl]amino]-5-methyl-pyridine-2-carboxylate]: the IC50 was less than 100 nM.

Regarding `COC(=O)c1ccc(NC(=O)c2c(Oc3ccc(OC(F)(F)F)cc3)ccc(C(F)(F)F)c2F)cn1` [Compound 13, methyl 5-[[2-fluoro-6-[4-(trifluoromethoxy)phenoxy]-3-(trifluoromethyl)benzoyl]amino]pyridine-2-carboxylate], the IC50 was not below 1000 nM.

`COC(=O)c1nccc(NC(=O)c2c(Oc3ccc(OC(F)(F)F)cc3OC)ccc(C(F)(F)F)c2C)c1C` [Compound 33, methyl 4-(6-(2-methoxy-4-(trifluoromethoxy)phenoxy)-2-methyl-3-(trifluoromethyl)benzamido)-3-methylpicolinate]: the IC50 is not below 1000 nM.

`COC(=O)c1ccc(NC(=O)c2c(Oc3ccc(OC(F)(F)F)cc3OC)ccc(C(F)(F)F)c2F)cn1` [Compound 15, Methyl 5-[[2-fluoro-6-[2-methoxy-4-(trifluoromethoxy)phenoxy]-3-(trifluoromethyl)benzoyl]amino]pyridine-2-carboxylate]: the IC50 was in the range of 100 to 500 nM.

Take `COC(=O)c1ccc(NC(=O)c2c(Oc3ccc(OC(F)(F)F)c(F)c3OC)ccc(C(F)(F)F)c2F)cn1` [Compound 14, Methyl 5-[[2-fluoro-6-[3-fluoro-2-methoxy-4-(trifluoromethoxy)phenoxy]-3-(trifluoromethyl)benzoyl]amino]pyridine-2-carboxylate]: the IC50 is 100 to 500 nM.

On to `COC(=O)c1cc(NC(=O)c2c(Oc3ccc(OC(F)(F)F)c(F)c3C)ccc(C(F)(F)F)c2C)c(C)cn1` [Compound 16, Methyl 4-[[6-[3-fluoro-2-methyl-4-(trifluoromethoxy)phenoxy]-2-methyl-3-(trifluoromethyl)benzoyl]amino]-5-methyl-pyridine-2-carboxylate], for which the IC50 is less than 100 nM.

Turning to `COC(=O)c1nccc(NC(=O)c2c(Oc3ccc(OC(F)(F)F)c(F)c3OC)ccc(C(F)(F)F)c2C)c1C` [Compound 32, methyl 4-(6-(3-fluoro-2-methoxy-4-(trifluoromethoxy)phenoxy)-2-methyl-3-(trifluoromethyl)benzamido)-3-methylpicolinate], the IC50 was not below 1000 nM.

Take `COC(=O)c1cc(NC(=O)c2c(Oc3ccc(OC(F)(F)F)cc3OC)ccc(C(F)(F)F)c2O)ccn1` [Compound 25, Methyl 4-[[2-hydroxy-6-[2-methoxy-4-(trifluoromethoxy)phenoxy]-3-(trifluoromethyl)benzoyl]amino]pyridine-2-carboxylate]: the IC50 was in the range of 100 to 500 nM.

On to `COC(=O)c1cc(NC(=O)c2c(Oc3ccc(OC(F)(F)F)c(F)c3OC)ccc(C(F)(F)F)c2C)c(C2CC2)cn1` [Compound 28, methyl 5-cyclopropyl-4-(6-(3-fluoro-2-methoxy-4-(trifluoromethoxy)phenoxy)-2-methyl-3-(trifluoromethyl)benzamido)picolinate], for which the concentration for half-maximal inhibition (IC50) was not below 1000 nM.

Take `COC(=O)c1ccc(NC(=O)c2c(Oc3ccc(F)cc3OC)ccc(C(F)(F)F)c2F)cn1` [Compound 10, methyl 5-[[2-fluoro-6-(4-fluoro-2-methoxy-phenoxy)-3-(trifluoromethyl)benzoyl]amino]pyridine-2-carboxylate]: the 50% inhibitory concentration (IC50) is not below 1000 nM.
